Data set [1] addresses T1, ERRγ (Homo sapiens, UniProt P62508).
T1 sequence (P62508 233-458 limits assumed): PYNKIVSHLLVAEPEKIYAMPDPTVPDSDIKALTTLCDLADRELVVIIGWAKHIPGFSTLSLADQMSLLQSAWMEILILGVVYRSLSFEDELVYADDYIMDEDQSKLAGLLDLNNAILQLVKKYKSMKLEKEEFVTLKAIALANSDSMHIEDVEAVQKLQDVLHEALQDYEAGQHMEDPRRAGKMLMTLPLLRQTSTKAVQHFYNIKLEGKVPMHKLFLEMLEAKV
Put plainly: ERRγ functional assay: GAL4-ERRγ luciferase reporter gene in AD293 cells. In kind it is cell-based. Conditions: for inhibition at 10 µM: AD293, 24 h, screening concentration of 10 μM, read-out: transcriptional repression; for ERRγ functional activity in the cellular system (in words): 10 μM, reporter-gene assay, compared with control ligand 4. As to the method:
Along with the binding assay campaign, functional activity was determined in order to validate the utility of the binding affinity in a cellular context as described in the Experimental.
Figure 2 Cell based reporter-gene assay screening of 16 analogs ERRγ binding activity in cell was measured by luciferase activity using co-transfection system with GAL4-ERRγ and pFR-luciferase reporter gene.
AD293 cells were cultured in Dulbecco’ modified Eagle medium (DMEM) High glucose supplemented with 0.5% FBS (Hyclone, Logan, UT, USA). After 24 h, culture media was changed with DMEM High glucose containing 10% FBS. DNA constructs, which includes pCMX-Gal4-ERRγ, pFR-luciferase reporter plasmid, pCMV-β-gal were transiently transfected into AD293 cells using TransIT-LT1 transfection reagent (Mirus, Madison, WI, USA) for 24 h. Then, transfected cells were treated with compounds for 24 h and harvested for detection of luciferase activity and β-gal activity. All cells were incubated at 37 °C under 5% CO2 in a humidified incubator [5].
In general terms: A reporter such as luciferase makes a cellular process visible.

The target in data set [2] is T2, ERRγ (Homo sapiens, UniProt P62508).
T2 construct: purchased Life Technologies
T2 sequence (P62508 233-457 limits assumed): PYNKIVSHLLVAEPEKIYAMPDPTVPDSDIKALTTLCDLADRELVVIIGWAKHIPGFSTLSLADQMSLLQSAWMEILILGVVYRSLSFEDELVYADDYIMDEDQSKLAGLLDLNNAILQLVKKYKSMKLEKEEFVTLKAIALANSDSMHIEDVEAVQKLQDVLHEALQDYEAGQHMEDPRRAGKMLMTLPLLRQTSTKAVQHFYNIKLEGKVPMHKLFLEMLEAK
Put plainly: TR-FRET (LanthaScreen) ERRγ binding assay. Conditions: Table 1 screening, 2-fold serial dilution from 10 μM; for pIC50: read-out: ERRγ, IC50 (binding inhibition of ERRγ binding activity). The method, then: Initials creening was conducted using a well established TR-FRET based ERRγ binding assay as described in the Experimental section at a concentration of 10 μM. Serial dilutions of the synthesized compounds were used to calculate IC50 values for the binding affinity with ERRγ.
ERRγ binding assay was conducted with Lantascreen assay system (Life Technologies, Grand Island, NY, USA), which was based on TR-FRET, followed by manufacturer’s instruction. Briefly, compounds were serially diluted with 2-fold staring from 10 μM and 10 μL of each diluent was added in 384 well plate. Then, GST-conjugated ERRγ LBD (ligand-binding domain) was added to be 5 nM. Next, the mixture of fluorescien-conjugated coactivator PGC1a (final concentration to be 500 nM) and Tb-a-GST antibody (final concentration to be 5 nM) was added. The reaction mixture was incubated at rt in dark state for 1 h.
For orientation: Time-resolved FRET reads energy transfer from a long-lived donor to a nearby acceptor.

Data set [3] in a line: Metabolic stability assay in liver microsomes (rat). In kind it is in vitro ADME. Conditions: 1 μM, 30 min, 37 °C, NADPH. The method, then:
(§1) The metabolic stability assay was performed by incubation of human and selected animal liver microsomes (most often dog, rat and mouse), at 37 °C with a test compound at a final concentration of 1 μM, in the presence of 0.5 mg/mL microsomal protein and NADPH regeneration system, in a total volume of 100 μL of 100 mM phosphate buffer, pH 7.4. The incubation was started by the addition of NADPH regeneration system and terminated with adding 40 μL of ice-cold acetonitrile at 0 and 30 min. […] Incubations terminated prior to addition of NADPH regeneration system (time point 0 min) were used as standards, defined as 100%. Percent of the parent compound remaining was calculated by comparing peak areas.
Background: Microsomes from liver hold many membrane-bound enzymes, among them those of drug oxidation.

The nature of data set [4]: Metabolic stability assay in liver microsomes (human). The conditions noted are these: 1 μM, 30 min, 37 °C, NADPH. The format is in vitro ADME. The method, then:
as §1

The target of another data set is CYP2D6 (Homo sapiens, UniProt P10635). Put plainly: CYP inhibition assay, cocktail, human liver microsomes (dextromethorphan O-demethylase). The format is in vitro ADME. The conditions noted are these: 10 μM, activity in presence of inhibitor as % of control.
CYP2D6, sequence (P10635 whole entry): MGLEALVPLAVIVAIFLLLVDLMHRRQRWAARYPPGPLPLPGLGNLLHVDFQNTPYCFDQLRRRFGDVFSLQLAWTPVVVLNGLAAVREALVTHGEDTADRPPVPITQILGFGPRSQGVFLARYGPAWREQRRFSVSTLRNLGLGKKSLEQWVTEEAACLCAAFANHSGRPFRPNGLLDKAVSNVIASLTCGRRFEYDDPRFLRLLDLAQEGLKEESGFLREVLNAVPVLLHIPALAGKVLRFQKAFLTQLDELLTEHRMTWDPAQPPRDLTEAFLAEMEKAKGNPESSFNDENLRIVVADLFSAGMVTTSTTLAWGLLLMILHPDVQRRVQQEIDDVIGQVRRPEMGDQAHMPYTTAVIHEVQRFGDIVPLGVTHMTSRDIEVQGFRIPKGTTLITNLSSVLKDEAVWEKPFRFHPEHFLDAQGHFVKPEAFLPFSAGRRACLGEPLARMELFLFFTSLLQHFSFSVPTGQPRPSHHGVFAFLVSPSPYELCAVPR
The target of another data set is T3, CYP1A2 (Homo sapiens, UniProt P05177).
T3 sequence (P05177 1-516): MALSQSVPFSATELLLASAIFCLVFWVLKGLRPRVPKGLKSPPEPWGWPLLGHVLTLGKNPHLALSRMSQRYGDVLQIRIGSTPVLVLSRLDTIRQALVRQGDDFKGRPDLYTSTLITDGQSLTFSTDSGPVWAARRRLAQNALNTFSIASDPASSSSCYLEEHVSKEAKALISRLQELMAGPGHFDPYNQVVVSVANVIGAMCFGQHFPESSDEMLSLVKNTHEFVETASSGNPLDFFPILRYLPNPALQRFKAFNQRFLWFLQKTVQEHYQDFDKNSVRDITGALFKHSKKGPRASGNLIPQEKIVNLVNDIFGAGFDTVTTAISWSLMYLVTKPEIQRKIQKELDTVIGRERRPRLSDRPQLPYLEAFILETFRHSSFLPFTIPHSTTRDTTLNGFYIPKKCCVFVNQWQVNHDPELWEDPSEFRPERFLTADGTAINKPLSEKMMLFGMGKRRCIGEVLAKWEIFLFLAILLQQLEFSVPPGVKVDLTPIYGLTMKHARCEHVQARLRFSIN
Put plainly: CYP inhibition assay, cocktail, human liver microsomes (phenacetin O-deethylase). In kind it is in vitro ADME. Conditions: 10 μM, activity in presence of inhibitor as % of control.

Data set [5] in a line: Metabolic stability assay in liver microsomes (mouse). The format is in vitro ADME. Conditions: 1 μM, 30 min, 37 °C, NADPH. As to the method: as §1
A further data set deals with CYP2C19 (Homo sapiens, UniProt P33261). Put plainly: CYP inhibition assay, cocktail, human liver microsomes (S-mephenytoin 4-hydroxylase). In kind it is in vitro ADME. Conditions: 10 μM, activity in presence of inhibitor as % of control.
CYP2C19, sequence (P33261 whole entry): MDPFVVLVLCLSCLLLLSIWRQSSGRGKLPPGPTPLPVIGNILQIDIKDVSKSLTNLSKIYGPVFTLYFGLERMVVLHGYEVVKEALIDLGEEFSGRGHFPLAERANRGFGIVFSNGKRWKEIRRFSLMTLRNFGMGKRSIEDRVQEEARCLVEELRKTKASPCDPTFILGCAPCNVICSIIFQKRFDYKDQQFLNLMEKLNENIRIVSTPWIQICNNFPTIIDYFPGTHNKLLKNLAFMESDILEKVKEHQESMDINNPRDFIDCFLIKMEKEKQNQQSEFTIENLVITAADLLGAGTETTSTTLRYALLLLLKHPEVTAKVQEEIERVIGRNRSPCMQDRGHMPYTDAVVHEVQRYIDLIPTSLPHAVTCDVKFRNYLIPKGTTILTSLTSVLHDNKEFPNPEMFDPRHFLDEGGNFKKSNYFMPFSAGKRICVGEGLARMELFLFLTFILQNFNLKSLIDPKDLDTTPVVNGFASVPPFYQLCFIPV
In a further data set the target is CYP2C9 (Homo sapiens, UniProt P11712). Put plainly: CYP inhibition assay, cocktail, human liver microsomes (tolbutamide 4-hydroxylase). The format is in vitro ADME. Conditions: 10 μM, human liver microsomes; activity in presence of inhibitor as % of control.
CYP2C9, sequence (P11712 whole entry): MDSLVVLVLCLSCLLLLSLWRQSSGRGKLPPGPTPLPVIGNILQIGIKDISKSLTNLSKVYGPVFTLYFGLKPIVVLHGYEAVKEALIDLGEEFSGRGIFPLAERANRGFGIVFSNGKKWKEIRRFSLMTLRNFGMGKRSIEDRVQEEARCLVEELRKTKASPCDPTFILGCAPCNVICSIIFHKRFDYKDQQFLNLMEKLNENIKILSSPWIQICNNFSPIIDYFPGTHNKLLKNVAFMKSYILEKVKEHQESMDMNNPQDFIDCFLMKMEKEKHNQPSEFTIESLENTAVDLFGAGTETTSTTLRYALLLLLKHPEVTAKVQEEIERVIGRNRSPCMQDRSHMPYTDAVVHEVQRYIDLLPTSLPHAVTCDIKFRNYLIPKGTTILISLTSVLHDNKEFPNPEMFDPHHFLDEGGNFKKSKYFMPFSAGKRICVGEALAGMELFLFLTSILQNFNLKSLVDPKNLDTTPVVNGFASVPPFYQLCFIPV
A short description of data set [6]: Metabolic stability assay in liver microsomes (dog). In kind it is in vitro ADME. Conditions: 1 μM, 30 min, 37 °C, NADPH. As to the method:
as §1

In the next data set the test system is CYP3A. Put plainly: CYP inhibition assay, cocktail, human liver microsomes (midazolam 1'-hydroxylase). Conditions: 10 μM, activity in presence of inhibitor as % of control. In kind it is in vitro ADME.

pIC50: −log10 of the molar value. Where only a bound is given, the exact number is not on record here.

The source of these data is PMC6273807, “Identification of Selective ERRγ Inverse Agonists” (Molecules, 2016).

A word on the pIC50: it is the IC50 on a negative log10 scale, so that one unit is a factor of ten.

Consider `COCCC/C(=C(\c1ccc(O)cc1)c1ccc(OCCN(C)C)cc1)c1ccncc1` [Compound 13b, (Z)-4-(1-(4-(2-(Dimethylamino)ethoxy)phenyl)-5-methoxy-2-(pyridin-4-yl)pent-1-en-1-yl)phenol], for which the inhibition at 10 µM on ERRγ [1] is around 50%. Further, at ERRγ [2], the negative logarithm of the IC50 (pIC50) was below 5.00.
Consider `CN(C)CCOc1ccc(/C(=C(/CCCO)c2ccccc2)c2ccc(O)cc2)cc1` [Compound 4, GSK5182, reference compound], for which, in data set [3], the “MS (%), Rat (percent of parent compound remaining)” value worked out at 26%. The “MS (%), Human (percent of parent compound remaining)” value in data set [4] is listed as 43%. Moreover, the “CYP Inhibition (% of Control), 2D6” value on CYP2D6 was 82 % of Control. Also, on CYP1A2, the “CYP Inhibition (% of Control), 1A2” value is recorded as 84 % of Control. Moreover, the “MS (%), Mouse (percent of parent compound remaining)” value in data set [5] is on record as “less than 10%”. The “CYP Inhibition (% of Control), 2C19” value at CYP2C19 is given as 78 % of Control. Moreover, the “CYP Inhibition (% of Control), 2C9” value at CYP2C9 is recorded as 73 % of Control. In addition, the “MS (%), Dog (percent of parent compound remaining)” value in [6] is listed as “less than 10%”. In the data set on CYP3A, the “CYP Inhibition (% of Control), 3A4” value is listed as 83 % of Control.
Take `CN(C)CCOc1ccc(/C(=C(/CCCO)c2ccc3ccncc3c2)c2ccc(O)cc2)cc1` [Compound 15j, (Z)-4-(1-(4-(2-(Dimethylamino)ethoxy)phenyl)-5-hydroxy-2-(isoquinolin-7-yl)pent-1-en-1-yl)phenol]: at ERRγ [2], the negative logarithm of the IC50 (pIC50) is 5.33.
Still for that read-out and setting: then `CN(C)CCOc1ccc(/C(=C(/CCCO)c2cccnc2)c2ccc(O)cc2)cc1` [Compound 15d, (Z)-4-(1-(4-(2-(Dimethylamino)ethoxy)phenyl)-5-hydroxy-2-(pyridin-3-yl)pent-1-en-1-yl)phenol], with 5.51.
As for `CN(C)CCOc1ccc(/C(=C(/CCCO)c2ccc3nccn3c2)c2ccc(O)cc2)cc1` [Compound 15i, (Z)-4-(1-(4-(2-(Dimethylamino)ethoxy)phenyl)-5-hydroxy-2-(imidazo[1,2-a]pyridin-6-yl)pent-1-en-1-yl)phenol], at ERRγ [1], the inhibition at 10 µM is around 0%. In addition, at ERRγ [2], the pIC50 was below 5.00.
Regarding `CN(C)CCOc1ccc(/C(=C(/CCCO)c2ccnc(F)c2)c2ccc(O)cc2)cc1` [Compound 15e, (Z)-4-(1-(4-(2-(Dimethylamino)ethoxy)phenyl)-2-(2-fluoropyridin-4-yl)-5-hydroxypent-1-en-1-yl)phenol], on ERRγ [1], the “ERRγ functional activity in the cellular system (in words)” value (from here on “ERRγ functional activity”) is “comparable regression of the ERRγ transcriptional activity”. In addition, the negative logarithm of the IC50 (pIC50) on ERRγ [2] was 5.27.
As to `COCCC/C(=C(\c1ccc(O)cc1)c1ccc(OCCN(C)C)c(C(F)(F)F)c1)c1cccnc1` [Compound 16], the inhibition at 10 µM on ERRγ [1] was around 0%. For the same molecule, on ERRγ [2], the “ERRγ, IC50 (binding inhibition of ERRγ binding activity)” value was “no affinity” and the negative logarithm of the IC50 (pIC50) was below 5.00.
With `COc1ccc(/C(CCCO)=C(/c2ccc(O)cc2)c2ccc(OCCN(C)C)cc2)cn1` [Compound 15c, (Z)-4-(1-(4-(2-(Dimethylamino)ethoxy)phenyl)-5-hydroxy-2-(6-methoxypyridin-3-yl)pent-1-en-1-yl)phenol], the inhibition at 10 µM on ERRγ [1] was around 50%. In addition, the pIC50 on ERRγ [2] was below 5.00.
The matching figures for `COCCC/C(=C(\c1ccc(O)cc1)c1ccc(OCCN(C)C)cc1)c1ccc(C(C)C)nc1` [Compound 17, (Z)-4-(1-(4-(2-(Dimethylamino)ethoxy)phenyl)-2-(6-isopropylpyridin-3-yl)-5-methoxypent-1-en-1-yl)phenol]: around 50% and below 5.00.
Consider `COCCC/C(=C(\c1ccc(O)cc1)c1ccc(OCCN(C)C)cc1)c1cnn(C)c1` [Compound 13c, (Z)-4-(1-(4-(2-(Dimethylamino)ethoxy)phenyl)-5-methoxy-2-(1-methyl-1H-pyrazol-4-yl)pent-1-en-1-yl)-phenol], for which the inhibition at 10 µM at ERRγ [1] is around 50%. The pIC50 on ERRγ [2] was below 5.00.
The like results for `CN(C)CCOc1ccc(/C(=C/CCCO)c2ccc(O)cc2)cc1` [Compound 15a, (E)-4-(1-(4-(2-(Dimethylamino)ethoxy)phenyl)-5-hydroxypent-1-en-1-yl)phenol] were, in that order, around 0% and below 5.00.
As for `CN(C)CCOc1ccc(/C(=C(/CCCO)c2ccc(N3CCOCC3)nc2)c2ccc(O)cc2)cc1` [Compound 15f, (Z)-4-(1-(4-(2-(Dimethylamino)ethoxy)phenyl)-5-hydroxy-2-(6-morpholinopyridin-3-yl)pent-1-en-1-yl)phenol], on ERRγ [1], the “ERRγ functional activity” value is recorded as “partial agonistic activity”. Further, the negative logarithm of the IC50 (pIC50) on ERRγ [2] was below 5.00.
With `COCCC/C(=C(\c1ccc(O)cc1)c1ccc(OCCN(C)C)cc1)c1cccnc1` [Compound 13a, (Z)-4-(1-(4-(2-(Dimethylamino)ethoxy)phenyl)-5-methoxy-2-(pyridin-3-yl)pent-1-en-1-yl)phenol], the “ERRγ functional activity” value at ERRγ [1] is “comparable regression of the ERRγ transcriptional activity”. At ERRγ [2], the negative logarithm of the IC50 (pIC50) is 6.00.
Turning to `CN(C)CCOc1ccc(/C(=C(/CCCO)c2ccc(O)cc2)c2ccc(O)cc2)cc1` [Compound 15b, (Z)-4,4′-(1-(4-(2-(Dimethylamino)ethoxy)phenyl)-5-hydroxypent-1-ene-1,2-diyl)diphenol], the pIC50 at ERRγ [2] was 5.63.
